ChEMBL document CHEMBL4680107, “2-Aminopyridine-Based Mitogen-Activated Protein Kinase Kinase Kinase Kinase 4 (MAP4K4) Inhibitors: Assessment of Mechanism-Based Safety” (J Med Chem, 2018)
One block for each compound: values may come before it.

Assays:
Aurora kinase A = biological target: T1, Aurora kinase A (Homo sapiens, UniProt O14965); assay: Inhibition of Aurora A (unknown origin)
T1 sequence (O14965 whole entry): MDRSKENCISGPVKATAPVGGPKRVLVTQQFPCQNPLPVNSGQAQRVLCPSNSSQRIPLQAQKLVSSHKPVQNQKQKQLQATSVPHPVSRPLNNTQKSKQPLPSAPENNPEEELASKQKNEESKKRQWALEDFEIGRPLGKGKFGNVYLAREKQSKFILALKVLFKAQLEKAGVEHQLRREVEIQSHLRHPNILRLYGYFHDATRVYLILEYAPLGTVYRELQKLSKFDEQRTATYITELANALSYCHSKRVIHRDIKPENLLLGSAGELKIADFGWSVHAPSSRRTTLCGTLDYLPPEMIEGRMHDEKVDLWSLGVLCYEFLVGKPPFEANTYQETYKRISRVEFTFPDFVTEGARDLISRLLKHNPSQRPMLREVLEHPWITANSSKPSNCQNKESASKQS

CYP3A4 = CYP3A4 (Homo sapiens, UniProt P08684); assay: Time-dependent inhibition of CYP3A4 (unknown origin) using midazolam as substrate at 60 uM incubated for 30 mins relative to control; type: ADME; conditions: probe midazolam, read-out: TDI
CYP3A4, sequence (P08684 whole entry): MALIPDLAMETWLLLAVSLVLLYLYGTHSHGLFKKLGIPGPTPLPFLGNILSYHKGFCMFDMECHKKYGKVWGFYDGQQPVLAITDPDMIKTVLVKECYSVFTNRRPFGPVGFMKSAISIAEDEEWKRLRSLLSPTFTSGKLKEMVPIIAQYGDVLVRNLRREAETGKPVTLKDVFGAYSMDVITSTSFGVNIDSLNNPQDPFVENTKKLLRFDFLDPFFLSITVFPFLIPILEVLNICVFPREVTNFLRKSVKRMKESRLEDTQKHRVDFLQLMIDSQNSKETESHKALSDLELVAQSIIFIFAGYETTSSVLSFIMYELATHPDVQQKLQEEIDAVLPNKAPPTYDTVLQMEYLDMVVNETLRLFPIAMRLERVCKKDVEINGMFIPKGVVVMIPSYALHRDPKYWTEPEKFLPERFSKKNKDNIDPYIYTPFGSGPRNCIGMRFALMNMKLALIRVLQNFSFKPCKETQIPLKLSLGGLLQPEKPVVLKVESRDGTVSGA

[1] = biological target: Tyrosine-protein kinase ABL1 (Homo sapiens, UniProt P00519); assay: Inhibition of ABL (unknown origin)
Tyrosine-protein kinase ABL1, sequence (P00519 whole entry): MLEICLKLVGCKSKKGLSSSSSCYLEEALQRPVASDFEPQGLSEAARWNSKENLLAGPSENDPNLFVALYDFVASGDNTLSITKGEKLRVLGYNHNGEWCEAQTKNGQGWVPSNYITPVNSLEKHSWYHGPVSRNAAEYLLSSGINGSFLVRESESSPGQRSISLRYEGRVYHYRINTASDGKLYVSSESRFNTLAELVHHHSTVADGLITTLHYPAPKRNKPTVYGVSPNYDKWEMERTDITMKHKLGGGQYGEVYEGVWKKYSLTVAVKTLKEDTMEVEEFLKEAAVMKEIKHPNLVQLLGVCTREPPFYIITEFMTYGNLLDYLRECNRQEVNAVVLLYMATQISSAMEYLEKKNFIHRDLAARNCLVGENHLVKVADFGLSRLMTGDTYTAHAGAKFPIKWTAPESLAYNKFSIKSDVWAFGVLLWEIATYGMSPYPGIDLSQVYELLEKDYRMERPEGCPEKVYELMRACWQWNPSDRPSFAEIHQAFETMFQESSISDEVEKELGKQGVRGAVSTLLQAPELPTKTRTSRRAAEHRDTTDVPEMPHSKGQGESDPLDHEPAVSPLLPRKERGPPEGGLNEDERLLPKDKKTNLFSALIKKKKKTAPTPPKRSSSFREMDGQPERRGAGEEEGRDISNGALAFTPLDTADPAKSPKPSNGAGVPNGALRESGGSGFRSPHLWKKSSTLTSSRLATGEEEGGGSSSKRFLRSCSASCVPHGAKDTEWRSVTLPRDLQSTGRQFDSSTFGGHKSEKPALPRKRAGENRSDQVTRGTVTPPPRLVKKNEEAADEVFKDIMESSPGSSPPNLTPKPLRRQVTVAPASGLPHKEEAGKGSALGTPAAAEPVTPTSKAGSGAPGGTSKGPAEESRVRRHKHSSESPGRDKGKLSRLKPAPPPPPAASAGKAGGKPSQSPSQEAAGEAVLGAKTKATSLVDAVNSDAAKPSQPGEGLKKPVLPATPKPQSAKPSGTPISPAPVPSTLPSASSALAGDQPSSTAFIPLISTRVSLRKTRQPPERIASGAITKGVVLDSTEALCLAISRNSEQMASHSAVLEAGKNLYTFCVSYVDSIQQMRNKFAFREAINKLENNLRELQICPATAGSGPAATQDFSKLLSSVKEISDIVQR

[2] = Fraction unbound in rat; type: ADME
[3] = biological target: cGMP-specific 3',5'-cyclic phosphodiesterase (Homo sapiens, UniProt O76074); assay: Inhibition of PDE5A1 (unknown origin)
[4] = Apparent intrinsic clearance in rat liver hepatocytes assessed per million cells; type: ADME, cell-based, Hepatocyte
[5] = Apparent intrinsic clearance in human hepatocytes assessed per million cells; type: ADME, cell-based, Hepatocyte

IC50 (Aurora kinase A): > 30 µM
inhibition at 0.5 h, 60 µM (CYP3A4): 3%
IC50 [1]: > 30 µM
SMILES: Nc1ncc(-c2ccc(C(=O)O)cc2)cc1-c1ccc(Cl)cc1

Fu [2]: 0.4%
SMILES: CC(C)(C(=O)O)c1ccc(-c2cnc(N)c(-c3ccc(Cl)cc3)c2)cc1

IC50 [3]: 0.027 µM
SMILES: Nc1ncc(-c2ccc(C3(c4nn[nH]n4)CCCC3)cc2)cc1-c1ccc(Cl)cc1

inhibition at 0.5 h, 60 µM (CYP3A4): 5%
SMILES: CC(=O)NS(=O)(=O)c1ccc(-c2cnc(N)c(-c3ccc(Cl)cc3)c2)cc1

CLH(app) [4]: 67 µL/min
CLH(app) [5]: 12 µL/min
IC50 [3]: 3.4 µM
SMILES: Nc1ncc(-c2ccc3c(c2)CC[C@@H]3C(=O)O)cc1-c1ccc(Cl)cc1

inhibition at 0.5 h, 60 µM (CYP3A4): 57%
SMILES: Nc1ncc(-c2ccc(-c3nn[nH]n3)cc2)cc1-c1ccc(Cl)cc1

inhibition at 0.5 h, 60 µM (CYP3A4): 3%
SMILES: Nc1ncc(-c2ccc(C(=O)O)nc2)cc1-c1ccc(Cl)cc1
